# In patent US10597388B2, “Pyridazinone herbicides” (FMC CORPORATION, priority 2014, dated 2020):
# Assays:
# Test in all cases: Test D controlled growth environment herbicide test, pre- and postemergence
# Format in all cases: in vivo
# [1] = tested on: field violet (Viola arvensis)
# Summary of the method: (§1)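 Rating is visual, 0–100 scale (100 = complete control), made against untreated plants 14–21 d after treatment in controlled growth conditions. Postemergence sprays went onto 1- to 4-leaf plants in peat medium; preemergence sprays onto silt loam after sowing; formulation included a surfactant.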
# [2] = tested on: pigweed (Amaranthus retroflexus)
# Summary of the method: as §1
# [3] = tested on: windgrass (Apera spica-venti)
# Summary of the method: as §1
# [4] = tested on: Russian thistle (Salsola kali)
# Summary of the method: as §1
# [5] = tested on: galium (catchweed bedstraw, Galium aparine)
# Summary of the method: as §1
# [6] = tested on: oilseed rape (Brassica napus)
# Summary of the method: as §1
# [7] = tested on: kochia (Kochia scoparia)
# Summary of the method: as §1
# [8] = tested on: buckwheat, wild (wild buckwheat, Polygonum convolvulus)
# Summary of the method: as §1
# [9] = tested on: speedwell (bird's-eye speedwell, Veronica persica)
# Summary of the method: as §1
# [10] = tested on: canarygrass (Phalaris minor)
# Summary of the method: as §1
# [11] = tested on: bluegrass (annual bluegrass, Poa annua)
# Summary of the method: as §1
# [12] = tested on: mustard, wild (wild mustard, Sinapis arvensis)
# Summary of the method: as §1
# [13] = tested on: radish, wild (wild radish, Raphanus raphanistrum)
# Summary of the method: as §1
# [14] = Postemergence, 31 g ai/ha, scale 0 to 100 (0 no effect, 100 complete control)
# [15] = Postemergence, 125 g ai/ha, visual rating on scale 0 (no effect) to 100 (complete control), 14 to 21 d
# [16] = Postemergence, 250 g ai/ha, scale 0 to 100 (0 no effect, 100 complete control)
# [17] = Preemergence, 62 g ai/ha, scale 0 to 100 (0 no effect, 100 complete control)
# [18] = Preemergence, 125 g ai/ha, scale 0 to 100 (0 no effect, 100 complete control)
# [19] = Preemergence, 250 g ai/ha, scale 0 to 100 (0 no effect, 100 complete control)
# [20] = postemergence, 62 g ai/ha, scale 0 to 100, 0 no effect, 100 complete control
smiles,measurement,setting,value
COc1nn(C)c(=O)c(-c2c(C)ccc3ccccc23)c1O [Compound 54],Field Violet plant response rating,[1]; [14],85
same,"Plant response rating, Field Violet",[1]; [15],95
same,"Plant response rating, Field Violet",[1]; [16],90
same,"Plant response rating (scale of 0 to 100), Field Violet","[1]; Preemergence, 31 g ai/ha",25
same,"Plant response rating, Field Violet",[1]; [17],35
same,"Plant response rating, Field Violet",[1]; [18],70
same,"Plant response rating, Field Violet",[1]; [19],95
same,"Plant response rating, Field Violet",[1]; [20],75
same,Pigweed plant response rating,[2]; [14],100
same,"Plant response rating, Pigweed",[2]; [15],100
same,"Plant response rating, Pigweed",[2]; [16],100
same,"Plant response rating (scale of 0 to 100), Pigweed","[2]; Preemergence, 31 g ai/ha",80
same,"Plant response rating, Pigweed",[2]; [17],100
same,"Plant response rating, Pigweed",[2]; [18],100
same,"Plant response rating, Pigweed",[2]; [19],100
same,"Plant response rating, Pigweed",[2]; [20],100
same,Windgrass plant response rating,[3]; [14],35
same,"Plant response rating, Windgrass",[3]; [15],70
same,"Plant response rating, Windgrass",[3]; [16],75
same,"Plant response rating (scale of 0 to 100), Windgrass","[3]; Preemergence, 31 g ai/ha",0
same,"Plant response rating, Windgrass",[3]; [17],50
same,"Plant response rating, Windgrass",[3]; [18],70
same,"Plant response rating, Windgrass",[3]; [19],95
same,"Plant response rating, Windgrass",[3]; [20],45
same,Russian Thistle plant response rating,[4]; [14],80
same,"Plant response rating, Russian Thistle",[4]; [15],90
same,"Plant response rating, Russian Thistle",[4]; [16],100
same,"Plant response rating (scale of 0 to 100), Russian Thistle","[4]; Preemergence, 31 g ai/ha",0
same,"Plant response rating, Russian Thistle",[4]; [17],0
same,"Plant response rating, Russian Thistle",[4]; [18],25
same,"Plant response rating, Russian Thistle",[4]; [19],35
same,"Plant response rating, Russian Thistle",[4]; [20],80
same,Galium plant response rating,[5]; [14],100
same,"Plant response rating, Galium",[5]; [15],100
same,"Plant response rating, Galium",[5]; [16],100
same,"Plant response rating (scale of 0 to 100), Galium","[5]; Preemergence, 31 g ai/ha",0
same,"Plant response rating, Galium",[5]; [17],45
same,"Plant response rating, Galium",[5]; [18],85
same,"Plant response rating, Galium",[5]; [19],100
same,"Plant response rating, Galium",[5]; [20],100
same,Oilseed Rape plant response rating,[6]; [14],75
same,"Plant response rating, Oilseed Rape",[6]; [15],100
same,"Plant response rating, Oilseed Rape",[6]; [16],100
same,"Plant response rating (scale of 0 to 100), Oilseed Rape","[6]; Preemergence, 31 g ai/ha",15
same,"Plant response rating, Oilseed Rape",[6]; [17],50
same,"Plant response rating, Oilseed Rape",[6]; [18],85
same,"Plant response rating, Oilseed Rape",[6]; [19],100
same,"Plant response rating, Oilseed Rape",[6]; [20],95
same,Kochia plant response rating,[7]; [14],15
same,"Plant response rating, Kochia",[7]; [15],100
same,"Plant response rating, Kochia",[7]; [16],100
same,"Plant response rating (scale of 0 to 100), Kochia","[7]; Preemergence, 31 g ai/ha",25
same,"Plant response rating, Kochia",[7]; [17],60
same,"Plant response rating, Kochia",[7]; [18],30
same,"Plant response rating, Kochia",[7]; [19],45
same,"Plant response rating, Kochia",[7]; [20],95
same,"Buckwheat, Wild plant response rating",[8]; [14],100
same,"Plant response rating, Buckwheat, Wild",[8]; [15],100
same,"Plant response rating, Buckwheat, Wild",[8]; [16],100
same,"Plant response rating (scale of 0 to 100), Buckwheat, Wild","[8]; Preemergence, 31 g ai/ha",0
same,"Plant response rating, Buckwheat, Wild",[8]; [17],5
same,"Plant response rating, Buckwheat, Wild",[8]; [18],70
same,"Plant response rating, Buckwheat, Wild",[8]; [19],80
same,"Plant response rating, Buckwheat, Wild",[8]; [20],100
same,Speedwell plant response rating,[9]; [14],75
same,"Plant response rating, Speedwell",[9]; [15],100
same,"Plant response rating, Speedwell",[9]; [16],100
same,"Plant response rating (scale of 0 to 100), Speedwell","[9]; Preemergence, 31 g ai/ha",100
same,"Plant response rating, Speedwell",[9]; [17],95
same,"Plant response rating, Speedwell",[9]; [18],100
same,"Plant response rating, Speedwell",[9]; [19],100
same,"Plant response rating, Speedwell",[9]; [20],100
same,Canarygrass plant response rating,[10]; [14],35
same,"Plant response rating, Canarygrass",[10]; [15],65
same,"Plant response rating, Canarygrass",[10]; [16],75
same,"Plant response rating (scale of 0 to 100), Canarygrass","[10]; Preemergence, 31 g ai/ha",15
same,"Plant response rating, Canarygrass",[10]; [17],55
same,"Plant response rating, Canarygrass",[10]; [18],80
same,"Plant response rating, Canarygrass",[10]; [19],90
same,"Plant response rating, Canarygrass",[10]; [20],55
same,Bluegrass plant response rating,[11]; [14],10
same,"Plant response rating, Bluegrass",[11]; [15],25
same,"Plant response rating, Bluegrass",[11]; [16],35
same,"Plant response rating (scale of 0 to 100), Bluegrass","[11]; Preemergence, 31 g ai/ha",0
same,"Plant response rating, Bluegrass",[11]; [17],10
same,"Plant response rating, Bluegrass",[11]; [18],15
same,"Plant response rating, Bluegrass",[11]; [19],25
same,"Plant response rating, Bluegrass",[11]; [20],15
same,"Mustard, Wild plant response rating",[12]; [14],100
same,"Plant response rating, Mustard, Wild",[12]; [15],100
same,"Plant response rating, Mustard, Wild",[12]; [16],100
same,"Plant response rating (scale of 0 to 100), Mustard, Wild","[12]; Preemergence, 31 g ai/ha",50
same,"Plant response rating, Mustard, Wild",[12]; [17],100
same,"Plant response rating, Mustard, Wild",[12]; [18],100
same,"Plant response rating, Mustard, Wild",[12]; [19],100
same,"Plant response rating, Mustard, Wild",[12]; [20],100
same,"Radish, Wild plant response rating",[13]; [14],80
same,"Plant response rating, Radish, Wild",[13]; [15],100
same,"Plant response rating, Radish, Wild",[13]; [16],100
same,"Plant response rating (scale of 0 to 100), Radish, Wild","[13]; Preemergence, 31 g ai/ha",25
same,"Plant response rating, Radish, Wild",[13]; [17],100
same,"Plant response rating, Radish, Wild",[13]; [18],100
same,"Plant response rating, Radish, Wild",[13]; [19],100
same,"Plant response rating, Radish, Wild",[13]; [20],100
